Our source for the IC50 values is ChEMBL document CHEMBL1134625 (J Med Chem, 2001).

Among the targets are Cannabinoid receptor 1 (Homo sapiens, UniProt P21554); Histamine H2 receptor (Homo sapiens, UniProt P25021); Histamine H1 receptor (Homo sapiens, UniProt P35367); D(3) dopamine receptor (Homo sapiens, UniProt P35462).
Experiment [1] addresses T1, 5-hydroxytryptamine receptor 1A (Homo sapiens, UniProt P08908).
T1 sequence (P08908 whole entry): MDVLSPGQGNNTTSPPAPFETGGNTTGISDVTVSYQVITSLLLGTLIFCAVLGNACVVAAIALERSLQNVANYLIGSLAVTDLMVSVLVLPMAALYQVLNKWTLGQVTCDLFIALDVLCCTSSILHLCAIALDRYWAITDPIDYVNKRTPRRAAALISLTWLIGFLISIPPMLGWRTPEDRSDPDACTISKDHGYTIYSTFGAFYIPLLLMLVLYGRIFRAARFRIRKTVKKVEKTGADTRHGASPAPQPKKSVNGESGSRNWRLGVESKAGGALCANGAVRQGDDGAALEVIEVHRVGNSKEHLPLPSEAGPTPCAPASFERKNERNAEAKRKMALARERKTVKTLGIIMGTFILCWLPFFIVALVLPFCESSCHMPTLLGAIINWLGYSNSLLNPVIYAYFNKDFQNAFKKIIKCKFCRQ

The target of experiment [2] is 5-hydroxytryptamine receptor 6 (Homo sapiens, UniProt P50406).
The target in experiment [3] is 5-hydroxytryptamine receptor 7 (Homo sapiens, UniProt P34969).
Experiment [4] deals with T2, 5-hydroxytryptamine receptor 2C (Homo sapiens, UniProt P28335).
T2 sequence (P28335 whole entry): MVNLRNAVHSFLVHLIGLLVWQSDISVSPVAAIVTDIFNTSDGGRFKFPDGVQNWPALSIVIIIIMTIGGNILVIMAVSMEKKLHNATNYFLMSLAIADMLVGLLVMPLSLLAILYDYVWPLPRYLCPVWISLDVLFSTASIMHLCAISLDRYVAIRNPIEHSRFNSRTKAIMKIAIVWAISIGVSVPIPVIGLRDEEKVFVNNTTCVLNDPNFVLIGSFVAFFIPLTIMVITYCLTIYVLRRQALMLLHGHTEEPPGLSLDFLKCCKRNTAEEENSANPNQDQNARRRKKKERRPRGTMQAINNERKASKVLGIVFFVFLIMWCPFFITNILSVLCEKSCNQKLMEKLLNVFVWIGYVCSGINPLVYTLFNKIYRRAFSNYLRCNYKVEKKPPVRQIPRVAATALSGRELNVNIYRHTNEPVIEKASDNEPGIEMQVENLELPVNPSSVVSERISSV

The target in experiment [5] is 5-hydroxytryptamine receptor 1B (Homo sapiens, UniProt P28222).
In experiment [6] the target is Sodium-dependent noradrenaline transporter (Homo sapiens, UniProt P23975).
Experiment [7] addresses T3, Adrenergic receptor alpha-1 (Homo sapiens, UniProt P35348+P25100+P35368).
T3 sequence (P35348 whole entry): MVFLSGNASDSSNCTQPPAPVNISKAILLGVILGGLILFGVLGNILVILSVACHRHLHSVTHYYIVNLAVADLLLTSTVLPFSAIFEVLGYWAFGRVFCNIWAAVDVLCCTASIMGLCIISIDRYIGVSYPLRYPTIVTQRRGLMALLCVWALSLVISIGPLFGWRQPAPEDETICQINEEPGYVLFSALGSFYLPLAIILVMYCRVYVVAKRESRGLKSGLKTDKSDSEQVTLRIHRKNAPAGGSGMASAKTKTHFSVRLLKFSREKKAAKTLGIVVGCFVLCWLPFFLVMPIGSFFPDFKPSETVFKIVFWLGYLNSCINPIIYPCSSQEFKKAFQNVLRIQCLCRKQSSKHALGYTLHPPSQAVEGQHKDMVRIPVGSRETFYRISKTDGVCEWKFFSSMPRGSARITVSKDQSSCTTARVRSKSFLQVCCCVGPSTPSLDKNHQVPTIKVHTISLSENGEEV
T3 sequence (P25100 whole entry): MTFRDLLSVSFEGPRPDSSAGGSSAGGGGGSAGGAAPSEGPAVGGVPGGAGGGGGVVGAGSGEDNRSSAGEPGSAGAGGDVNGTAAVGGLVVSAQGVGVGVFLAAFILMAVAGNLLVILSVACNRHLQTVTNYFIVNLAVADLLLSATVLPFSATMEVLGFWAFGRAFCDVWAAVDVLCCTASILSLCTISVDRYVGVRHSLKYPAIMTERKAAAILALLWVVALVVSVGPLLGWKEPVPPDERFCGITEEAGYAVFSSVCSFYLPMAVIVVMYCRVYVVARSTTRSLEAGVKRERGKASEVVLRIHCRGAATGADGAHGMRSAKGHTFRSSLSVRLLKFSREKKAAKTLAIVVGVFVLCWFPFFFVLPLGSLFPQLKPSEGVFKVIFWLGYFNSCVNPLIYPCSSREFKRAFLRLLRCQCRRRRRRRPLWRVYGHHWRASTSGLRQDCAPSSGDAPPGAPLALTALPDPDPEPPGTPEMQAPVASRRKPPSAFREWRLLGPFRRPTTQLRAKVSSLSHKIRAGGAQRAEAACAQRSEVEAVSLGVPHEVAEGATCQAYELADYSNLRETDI
T3 sequence (P35368 whole entry): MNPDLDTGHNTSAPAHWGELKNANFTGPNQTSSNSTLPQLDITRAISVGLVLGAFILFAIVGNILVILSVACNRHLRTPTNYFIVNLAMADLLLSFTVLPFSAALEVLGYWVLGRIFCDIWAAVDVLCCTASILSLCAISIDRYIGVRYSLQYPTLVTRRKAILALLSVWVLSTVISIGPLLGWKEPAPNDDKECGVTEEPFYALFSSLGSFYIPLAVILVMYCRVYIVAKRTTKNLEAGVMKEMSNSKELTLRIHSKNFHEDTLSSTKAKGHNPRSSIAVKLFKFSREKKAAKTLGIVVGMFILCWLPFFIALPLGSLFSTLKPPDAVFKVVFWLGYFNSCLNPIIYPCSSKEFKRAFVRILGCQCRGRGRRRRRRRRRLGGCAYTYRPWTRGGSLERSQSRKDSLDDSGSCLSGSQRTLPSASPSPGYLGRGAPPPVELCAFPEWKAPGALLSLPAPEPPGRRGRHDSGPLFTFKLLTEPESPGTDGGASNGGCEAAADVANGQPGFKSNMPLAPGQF
It is filed as protein assay.

For experiment [8], the target named is Voltage-gated L-type calcium channel (Homo sapiens, UniProt Q13936+Q13698+Q01668+O60840). It counts as protein assay.

Sequence of Histamine H2 receptor (P25021 whole entry): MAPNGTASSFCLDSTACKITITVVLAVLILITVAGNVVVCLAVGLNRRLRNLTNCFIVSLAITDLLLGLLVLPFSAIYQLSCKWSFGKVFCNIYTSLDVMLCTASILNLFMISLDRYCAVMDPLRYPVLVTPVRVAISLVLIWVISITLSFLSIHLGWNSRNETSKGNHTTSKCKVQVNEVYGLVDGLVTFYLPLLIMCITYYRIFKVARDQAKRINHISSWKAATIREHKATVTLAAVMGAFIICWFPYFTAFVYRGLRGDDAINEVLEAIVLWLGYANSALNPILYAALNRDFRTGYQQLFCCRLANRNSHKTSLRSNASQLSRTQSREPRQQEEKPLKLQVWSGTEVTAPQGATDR
Sequence of Sodium-dependent noradrenaline transporter (P23975 whole entry): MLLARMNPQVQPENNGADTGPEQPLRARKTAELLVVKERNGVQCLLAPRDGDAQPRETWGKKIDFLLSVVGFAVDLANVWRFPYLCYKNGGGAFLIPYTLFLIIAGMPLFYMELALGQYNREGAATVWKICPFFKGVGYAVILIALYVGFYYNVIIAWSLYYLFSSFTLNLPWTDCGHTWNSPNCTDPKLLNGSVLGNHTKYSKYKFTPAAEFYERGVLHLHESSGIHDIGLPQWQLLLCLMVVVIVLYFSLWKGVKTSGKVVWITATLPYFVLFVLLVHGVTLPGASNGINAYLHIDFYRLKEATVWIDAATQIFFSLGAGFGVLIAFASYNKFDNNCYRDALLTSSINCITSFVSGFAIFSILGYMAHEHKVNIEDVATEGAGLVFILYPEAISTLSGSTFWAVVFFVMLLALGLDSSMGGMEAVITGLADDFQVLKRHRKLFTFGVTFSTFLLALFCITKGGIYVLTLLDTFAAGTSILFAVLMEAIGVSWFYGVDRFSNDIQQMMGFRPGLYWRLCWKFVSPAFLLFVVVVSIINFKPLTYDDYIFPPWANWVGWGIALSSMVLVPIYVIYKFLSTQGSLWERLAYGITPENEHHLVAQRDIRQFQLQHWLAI
Sequence of 5-hydroxytryptamine receptor 6 (P50406 whole entry): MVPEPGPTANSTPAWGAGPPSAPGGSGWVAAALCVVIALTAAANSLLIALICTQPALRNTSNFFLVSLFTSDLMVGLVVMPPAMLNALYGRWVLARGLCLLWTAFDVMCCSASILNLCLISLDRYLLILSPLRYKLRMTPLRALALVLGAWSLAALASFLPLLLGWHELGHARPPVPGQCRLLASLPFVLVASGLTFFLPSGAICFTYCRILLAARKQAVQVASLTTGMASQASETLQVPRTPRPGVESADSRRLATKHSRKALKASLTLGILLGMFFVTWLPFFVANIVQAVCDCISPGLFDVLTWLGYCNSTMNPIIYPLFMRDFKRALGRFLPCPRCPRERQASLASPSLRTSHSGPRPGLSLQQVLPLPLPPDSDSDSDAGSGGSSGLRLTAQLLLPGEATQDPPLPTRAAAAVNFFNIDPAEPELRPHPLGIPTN
Sequence of Histamine H1 receptor (P35367 whole entry): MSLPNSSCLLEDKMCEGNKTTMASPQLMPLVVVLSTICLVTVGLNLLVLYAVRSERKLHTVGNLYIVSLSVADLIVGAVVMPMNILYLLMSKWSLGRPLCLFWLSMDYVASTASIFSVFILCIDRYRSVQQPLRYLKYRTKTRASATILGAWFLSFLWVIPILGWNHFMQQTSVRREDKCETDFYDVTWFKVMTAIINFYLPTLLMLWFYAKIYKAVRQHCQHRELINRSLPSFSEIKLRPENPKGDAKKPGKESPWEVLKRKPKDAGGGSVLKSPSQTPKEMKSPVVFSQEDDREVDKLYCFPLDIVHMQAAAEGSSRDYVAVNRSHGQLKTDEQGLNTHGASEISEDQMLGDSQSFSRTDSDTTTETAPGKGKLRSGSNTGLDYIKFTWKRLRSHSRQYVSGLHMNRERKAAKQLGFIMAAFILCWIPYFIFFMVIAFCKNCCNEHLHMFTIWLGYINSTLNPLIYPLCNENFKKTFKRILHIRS
Sequence of Cannabinoid receptor 1 (P21554 whole entry): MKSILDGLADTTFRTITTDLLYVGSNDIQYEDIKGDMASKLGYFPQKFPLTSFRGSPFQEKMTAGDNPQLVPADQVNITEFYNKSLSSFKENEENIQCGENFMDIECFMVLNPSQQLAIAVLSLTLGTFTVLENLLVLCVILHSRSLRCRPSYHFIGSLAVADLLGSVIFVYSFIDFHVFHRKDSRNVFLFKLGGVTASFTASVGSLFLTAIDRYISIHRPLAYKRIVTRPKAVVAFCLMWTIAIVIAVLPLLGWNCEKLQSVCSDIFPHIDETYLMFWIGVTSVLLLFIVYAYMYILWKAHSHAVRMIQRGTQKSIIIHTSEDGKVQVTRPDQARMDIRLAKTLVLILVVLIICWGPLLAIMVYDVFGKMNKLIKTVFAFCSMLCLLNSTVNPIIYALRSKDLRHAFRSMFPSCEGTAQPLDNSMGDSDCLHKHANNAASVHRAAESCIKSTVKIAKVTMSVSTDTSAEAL
Sequence of 5-hydroxytryptamine receptor 7 (P34969 whole entry): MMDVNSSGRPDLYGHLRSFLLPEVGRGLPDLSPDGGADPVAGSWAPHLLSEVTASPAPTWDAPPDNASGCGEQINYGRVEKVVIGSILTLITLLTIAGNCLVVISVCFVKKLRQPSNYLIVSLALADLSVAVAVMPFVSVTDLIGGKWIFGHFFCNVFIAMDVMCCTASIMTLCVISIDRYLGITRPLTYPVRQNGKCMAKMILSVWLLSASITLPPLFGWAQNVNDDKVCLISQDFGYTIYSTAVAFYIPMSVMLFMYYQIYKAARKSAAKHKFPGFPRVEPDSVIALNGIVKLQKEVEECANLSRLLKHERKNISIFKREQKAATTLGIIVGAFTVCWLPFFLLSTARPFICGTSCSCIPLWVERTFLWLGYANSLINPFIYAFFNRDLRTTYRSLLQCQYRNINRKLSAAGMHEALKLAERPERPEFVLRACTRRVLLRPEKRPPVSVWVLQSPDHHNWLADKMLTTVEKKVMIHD
Sequence of 5-hydroxytryptamine receptor 1B (P28222 whole entry): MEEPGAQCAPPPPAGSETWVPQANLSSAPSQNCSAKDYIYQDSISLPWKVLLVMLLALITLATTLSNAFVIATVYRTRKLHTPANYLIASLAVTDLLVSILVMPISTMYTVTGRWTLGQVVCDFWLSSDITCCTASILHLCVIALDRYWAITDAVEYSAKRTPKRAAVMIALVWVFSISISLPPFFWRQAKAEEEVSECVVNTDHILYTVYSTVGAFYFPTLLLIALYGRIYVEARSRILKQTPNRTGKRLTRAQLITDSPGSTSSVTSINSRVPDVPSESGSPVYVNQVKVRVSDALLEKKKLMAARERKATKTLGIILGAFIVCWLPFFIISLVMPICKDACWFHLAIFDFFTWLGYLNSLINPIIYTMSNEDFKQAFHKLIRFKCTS
Sequence of D(3) dopamine receptor (P35462 whole entry): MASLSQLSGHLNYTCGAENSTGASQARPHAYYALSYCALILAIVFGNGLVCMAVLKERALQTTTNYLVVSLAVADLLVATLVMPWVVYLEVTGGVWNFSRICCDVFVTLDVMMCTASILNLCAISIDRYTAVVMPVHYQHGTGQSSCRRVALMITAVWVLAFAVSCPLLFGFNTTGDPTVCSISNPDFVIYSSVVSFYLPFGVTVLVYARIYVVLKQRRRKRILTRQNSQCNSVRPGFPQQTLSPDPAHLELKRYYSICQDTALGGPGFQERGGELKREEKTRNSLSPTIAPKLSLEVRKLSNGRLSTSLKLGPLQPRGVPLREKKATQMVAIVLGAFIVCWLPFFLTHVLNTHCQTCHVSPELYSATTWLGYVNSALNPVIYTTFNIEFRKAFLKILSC

The term IC50 denotes the concentration at which inhibition is half-maximal. As to `N#Cc1ccc(CCOC(=O)NC2CCN(CCCC(c3ccc(F)cc3)c3ccc(F)cc3)CC2)cc1`, the IC50 against Cannabinoid receptor 1 came to 6090 nM; at Histamine H2 receptor, 368 nM; in [1] it was 985 nM; in experiment [2], 427 nM; in experiment [3], 998 nM; in [4], 2760 nM. For the same molecule, the IC50 in experiment [5] was 3580 nM; in experiment [6], 1140 nM; against Histamine H1 receptor it was 454 nM; in [7] it was 417 nM; in experiment [8], 284 nM; at D(3) dopamine receptor, 538 nM.
